From patent publication US8354499B2, “Cyanine-based probe\tag-peptide pair fluorescence protein imaging and fluorescence protein imaging methods” (Battelle Memorial Institute, priority 2007, dated 2013)

Experiments:
[1] = depending on binding peptide; cited from earlier work
[2] = system: Non-tagged MLCK peptide; assay: Control titration of the probe with non-tagged MLCK peptide; assay type: binding; settings: FIG. 2 circles
[3] = system: peptide-tag (SEQ ID NO. 2) versus FlAsH tag (SEQ ID NO. 3); assay: Single-pot selective labeling / FRET study, tagged MLCK peptide and FlAsH-tag calmodulin; assay type: binding
Procedure: Fluorescent resonance energy transfer (FRET) studies were also performed. Calmodulin which is known to bind MLCK in a 1:1 ratio in the presence of calcium was covalently linked to a FlAsH-tag having sequence CysCysProGlyCysCys (SEQ ID NO. 3). SEQ ID NO. 2 was utilized to label the MLCK peptide as described above.

[4] = Absorbance, emission and photophysical properties of free and tag-bound probe; assay type: physicochemical
Text: In addition to NMR, the synthesized probe of formula (I) was characterized by determining the absorbance and emission spectra, as presented in FIG. 1. The free probe has an absorbance maximum at 560 nm and an emission maximum at 568 nm.
The spectra of FIG. 1 are normalized to the probe/tagged MLCK peptide pair.
The tag bound probe has a quantum yield of 0.28.

[5] = system: tagged MLCK peptide (calmodulin binding peptide of myosin light chain kinase with SEQ ID NO. 2 tag on the C-terminus); assay: Fluorescence titration of the formula (I) probe with tagged MLCK peptide; settings: titration of tagged MLCK peptide into probe solution, FIG. 2
Text: For the present study, a tagged peptide was created utilizing the calmodulin binding peptide of the myosin light chain kinase (MLCK) having SEQ ID NO. 2 engineered onto the C-terminus (henceforth tagged MLCK peptide). To determine the binding affinity of the probe to the tag, the tagged MLCK peptide was titrated into a solution containing a probe having formula (I). […] This corresponds to peak molar binding in the absence of ethanedithiol.

Row | Compound | brightness (reported) [1] | fluorescence change on titration with non-tagged MLCK peptide [2] | preference for binding of the peptide-tag over FlAsH tag ([3]; single pot labeling with FlAsH and formula (I), FRET results) | FRET between FlAsH labeled calmodulin and formula (I) labeled tagged MLCK peptide ([3]; titration with 0.1-1 μM labeled peptide, FIG. 3) | extinction coefficient [4] | absorbance maximum ([4]; free probe) | emission maximum ([4]; free probe) | lifetime under photo bleaching conditions ([4]; peptide bound probe, relative to FlAsH) | fluorescence emission maximum ([4]; probe bound to peptide tag (red-shift)) | brightness relative to FlAsH and ReAsH ([4]; tag bound probe) | quantum yield ([4]; tag bound probe) | increase of probe fluorescence upon addition of tagged peptide [5]
1 | O=C(O)c1ccccc1-c1c2ccc(=O)c([As]3SCCS3)c-2oc2c([As]3SCCS3)c(O)ccc12 [FlAsH] | 41-60 |  |  |  |  |  |  |  |  |  |  | 
2 | CC1(C)C(/C=C/C=C2/N(CCCCS(=O)(=O)O)c3ccc([As]4SCCS4)cc3C2(C)C)=[N+](CCCCS(=O)(=O)[O-])c2ccc([As]3SCCS3)cc21 [formula (I)] |  | no increase in fluorescence | 85/15 | FRET was observed in proportion to labeling | 180,000 | 560 nm | 568 nm | three times longer than that of FlAsH | 576 nm | considerably higher than ReAsH | 0.28 | 5.8 fold
